A short description of series [1]: Drug metabolism in human hepatocytes assessed as glucuronidation by LC/MS/MS analysis. The format is ADME, cell-based, Hepatocyte.
For another series, the target named is T1, CYP2C8 (Homo sapiens, UniProt P10632).
T1 sequence (P10632 whole entry): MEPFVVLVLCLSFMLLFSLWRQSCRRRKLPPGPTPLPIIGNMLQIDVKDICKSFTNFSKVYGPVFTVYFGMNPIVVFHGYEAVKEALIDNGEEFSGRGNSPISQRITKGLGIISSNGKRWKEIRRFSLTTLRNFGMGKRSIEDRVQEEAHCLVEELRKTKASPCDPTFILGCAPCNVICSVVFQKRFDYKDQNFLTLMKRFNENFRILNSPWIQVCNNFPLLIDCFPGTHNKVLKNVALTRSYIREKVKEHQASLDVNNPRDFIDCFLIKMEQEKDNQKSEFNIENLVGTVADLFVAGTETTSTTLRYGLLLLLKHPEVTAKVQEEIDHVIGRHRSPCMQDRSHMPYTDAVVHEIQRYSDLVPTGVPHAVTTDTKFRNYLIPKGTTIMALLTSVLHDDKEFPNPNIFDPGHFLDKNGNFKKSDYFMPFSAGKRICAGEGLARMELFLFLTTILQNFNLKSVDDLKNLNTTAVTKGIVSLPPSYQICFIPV
The series can be described thus: Inhibition of CYP2C8 (unknown origin) at 3 uM relative to control. The format is ADME.

The target in another series is T2, CYP1A2 (Homo sapiens, UniProt P05177).
T2 sequence (P05177 whole entry): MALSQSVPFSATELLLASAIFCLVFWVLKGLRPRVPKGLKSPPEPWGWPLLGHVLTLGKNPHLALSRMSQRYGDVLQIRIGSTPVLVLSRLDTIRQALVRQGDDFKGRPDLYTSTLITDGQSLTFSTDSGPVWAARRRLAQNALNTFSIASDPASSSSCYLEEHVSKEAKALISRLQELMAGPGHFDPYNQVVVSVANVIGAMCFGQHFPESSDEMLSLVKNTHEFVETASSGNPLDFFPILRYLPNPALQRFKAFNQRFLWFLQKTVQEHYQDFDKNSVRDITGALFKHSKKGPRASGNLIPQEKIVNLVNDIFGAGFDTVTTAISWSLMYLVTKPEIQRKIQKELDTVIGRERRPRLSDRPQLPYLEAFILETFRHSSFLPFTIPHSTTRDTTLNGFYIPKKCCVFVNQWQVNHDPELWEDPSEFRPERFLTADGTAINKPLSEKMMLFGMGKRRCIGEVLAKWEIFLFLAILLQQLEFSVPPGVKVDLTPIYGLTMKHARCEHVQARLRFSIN
The series can be described thus: Inhibition of CYP1A2 (unknown origin) at 3 uM relative to control. In kind it is ADME.

A short description of series [2]: Intrinsic clearance in human hepatocytes measured per million cells. Conditions: read-out: CLH. The format is ADME, cell-based, Hepatocyte.
Series [3] can be described thus: Lipophilicity, logD of compound. In kind it is physicochemical. Conditions: octanol/water.
Series [4] in a line: Apparent permeability in MDCK cells by LC-MS/MS analysis. The conditions noted are these: dog. In kind it is ADME, cell-based, Canis lupus familiaris.
The next series addresses CYP3A4 (Homo sapiens, UniProt P08684). The series can be described thus: Inhibition of CYP3A4 (unknown origin) at 3 uM relative to control. The format is ADME.
In a further series the test system is PDE3A1. The series can be described thus: Inhibition of PDE3A1 (unknown origin). The format is toxicity, Homo sapiens.
Series [5] is described as follows: Drug metabolism in human hepatocytes assessed as oxidation by LC/MS/MS analysis. The format is ADME, cell-based, Hepatocyte.
A further series has as its target CYP2C9 (Homo sapiens, UniProt P11712). As to the kind of experiment: Inhibition of CYP2C9 (unknown origin) at 3 uM relative to control. In kind it is ADME.
Series [6] deals with Voltage-gated inwardly rectifying potassium channel KCNH2 (Homo sapiens, UniProt Q12809). As to the kind of experiment: Inhibition of human ERG dofetilide binding assay. The format is toxicity.
In a further series the target is CYP2D6 (Homo sapiens, UniProt P10635). As to the kind of experiment: Inhibition of CYP2D6 (unknown origin) at 3 uM relative to control. The format is ADME.
Series [7] concerns the target T3, Glucagon-like peptide 1 receptor (Homo sapiens, UniProt P43220). The series can be described thus: Displacement of [125I]-GLP1 from GLP-1 receptor (unknown origin) expressed in CHO cells membrane pre-incubated for 10 mins followed by [125I]-GLP1 addition and measured after 180 mins by microbeta scintillation counting method. The format is cell membranes. Background: In a radioligand displacement assay an active substance lowers the binding of a labelled ligand.

Series [8] deals with T3, Glucagon-like peptide 1 receptor. The series can be described thus: Agonist activity at GLP-1 receptor (unknown origin) expressed in CHO cells at 20 uM in presence of BETP by cAMP assay relative to control. In kind it is functional, cell-based. Conditions: filed as agonist. (In general: Changes in cAMP serve as a functional read-out for many G protein-coupled receptors.)

The text below walks through data of ChEMBL document CHEMBL5365423, “6-Azaspiro[2.5]octanes as small molecule agonists of the human glucagon-like peptide-1 receptor” (Bioorg Med Chem Lett, 2023).

T3 sequence (P43220 whole entry): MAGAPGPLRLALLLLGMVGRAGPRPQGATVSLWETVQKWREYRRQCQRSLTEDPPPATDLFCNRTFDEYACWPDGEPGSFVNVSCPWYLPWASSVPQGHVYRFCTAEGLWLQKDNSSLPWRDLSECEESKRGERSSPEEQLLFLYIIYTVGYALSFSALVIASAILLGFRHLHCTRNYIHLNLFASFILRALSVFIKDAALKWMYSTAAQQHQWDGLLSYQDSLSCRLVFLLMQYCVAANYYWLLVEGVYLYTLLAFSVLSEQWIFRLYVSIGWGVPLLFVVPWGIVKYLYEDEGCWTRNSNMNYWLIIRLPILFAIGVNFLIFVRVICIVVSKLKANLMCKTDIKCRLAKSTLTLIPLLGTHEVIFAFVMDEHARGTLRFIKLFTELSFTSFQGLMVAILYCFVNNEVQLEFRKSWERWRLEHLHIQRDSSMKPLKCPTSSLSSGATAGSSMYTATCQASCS
Chain of CYP2D6 (P10635 whole entry): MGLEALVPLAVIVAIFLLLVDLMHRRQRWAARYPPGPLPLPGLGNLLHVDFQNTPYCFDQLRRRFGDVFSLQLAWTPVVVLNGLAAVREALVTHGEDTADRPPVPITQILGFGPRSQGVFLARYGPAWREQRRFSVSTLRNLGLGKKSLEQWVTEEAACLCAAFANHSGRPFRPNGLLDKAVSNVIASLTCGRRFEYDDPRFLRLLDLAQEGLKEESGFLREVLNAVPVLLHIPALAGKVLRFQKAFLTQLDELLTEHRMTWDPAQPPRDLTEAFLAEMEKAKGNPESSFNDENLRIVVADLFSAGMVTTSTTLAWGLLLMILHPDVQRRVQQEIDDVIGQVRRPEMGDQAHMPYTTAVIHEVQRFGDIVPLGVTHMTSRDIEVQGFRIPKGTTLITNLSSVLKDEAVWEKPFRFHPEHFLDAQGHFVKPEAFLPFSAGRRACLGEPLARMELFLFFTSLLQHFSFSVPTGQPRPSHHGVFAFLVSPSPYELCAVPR
Chain of CYP3A4 (P08684 whole entry): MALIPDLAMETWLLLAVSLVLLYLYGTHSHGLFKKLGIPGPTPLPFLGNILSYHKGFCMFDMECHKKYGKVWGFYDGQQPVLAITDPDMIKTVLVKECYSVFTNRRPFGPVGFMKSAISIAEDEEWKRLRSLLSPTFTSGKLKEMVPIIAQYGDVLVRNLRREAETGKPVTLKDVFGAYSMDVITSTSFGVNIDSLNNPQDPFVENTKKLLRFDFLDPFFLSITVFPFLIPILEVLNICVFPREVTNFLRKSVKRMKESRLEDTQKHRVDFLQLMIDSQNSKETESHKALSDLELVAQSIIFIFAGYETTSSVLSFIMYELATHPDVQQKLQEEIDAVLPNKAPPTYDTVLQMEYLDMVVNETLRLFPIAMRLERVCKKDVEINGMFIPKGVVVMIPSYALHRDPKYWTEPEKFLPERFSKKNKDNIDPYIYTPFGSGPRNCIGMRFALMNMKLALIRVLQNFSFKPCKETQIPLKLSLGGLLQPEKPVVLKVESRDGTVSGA
Chain of Voltage-gated inwardly rectifying potassium channel KCNH2 (Q12809 whole entry): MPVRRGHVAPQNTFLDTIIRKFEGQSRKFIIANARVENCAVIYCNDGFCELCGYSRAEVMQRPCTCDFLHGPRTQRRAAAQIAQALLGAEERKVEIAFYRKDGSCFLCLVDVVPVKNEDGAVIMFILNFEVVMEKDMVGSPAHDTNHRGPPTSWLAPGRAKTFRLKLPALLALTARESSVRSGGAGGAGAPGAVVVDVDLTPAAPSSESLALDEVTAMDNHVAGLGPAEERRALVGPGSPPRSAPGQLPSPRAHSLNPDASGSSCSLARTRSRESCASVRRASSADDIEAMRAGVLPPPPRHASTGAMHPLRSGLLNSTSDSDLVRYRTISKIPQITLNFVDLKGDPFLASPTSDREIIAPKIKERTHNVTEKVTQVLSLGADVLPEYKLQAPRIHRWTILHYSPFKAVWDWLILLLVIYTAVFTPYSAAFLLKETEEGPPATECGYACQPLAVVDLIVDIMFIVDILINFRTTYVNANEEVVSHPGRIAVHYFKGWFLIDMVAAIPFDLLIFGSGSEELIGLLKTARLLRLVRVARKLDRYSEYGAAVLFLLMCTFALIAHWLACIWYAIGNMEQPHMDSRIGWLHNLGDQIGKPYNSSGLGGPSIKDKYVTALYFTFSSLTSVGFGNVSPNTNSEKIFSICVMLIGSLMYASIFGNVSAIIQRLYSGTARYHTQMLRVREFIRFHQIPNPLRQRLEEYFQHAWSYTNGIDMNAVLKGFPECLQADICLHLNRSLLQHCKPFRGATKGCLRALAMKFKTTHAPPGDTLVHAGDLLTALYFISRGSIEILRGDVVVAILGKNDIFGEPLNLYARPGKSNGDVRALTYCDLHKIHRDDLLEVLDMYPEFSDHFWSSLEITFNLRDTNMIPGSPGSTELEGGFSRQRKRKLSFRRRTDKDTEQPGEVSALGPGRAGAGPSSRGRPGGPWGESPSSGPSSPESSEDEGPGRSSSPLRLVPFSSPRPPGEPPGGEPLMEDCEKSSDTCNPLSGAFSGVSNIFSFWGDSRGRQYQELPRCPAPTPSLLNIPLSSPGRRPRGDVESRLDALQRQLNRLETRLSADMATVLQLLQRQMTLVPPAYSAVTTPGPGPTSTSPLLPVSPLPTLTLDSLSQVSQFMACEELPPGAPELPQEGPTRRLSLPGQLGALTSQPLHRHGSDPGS
Chain of CYP2C9 (P11712 whole entry): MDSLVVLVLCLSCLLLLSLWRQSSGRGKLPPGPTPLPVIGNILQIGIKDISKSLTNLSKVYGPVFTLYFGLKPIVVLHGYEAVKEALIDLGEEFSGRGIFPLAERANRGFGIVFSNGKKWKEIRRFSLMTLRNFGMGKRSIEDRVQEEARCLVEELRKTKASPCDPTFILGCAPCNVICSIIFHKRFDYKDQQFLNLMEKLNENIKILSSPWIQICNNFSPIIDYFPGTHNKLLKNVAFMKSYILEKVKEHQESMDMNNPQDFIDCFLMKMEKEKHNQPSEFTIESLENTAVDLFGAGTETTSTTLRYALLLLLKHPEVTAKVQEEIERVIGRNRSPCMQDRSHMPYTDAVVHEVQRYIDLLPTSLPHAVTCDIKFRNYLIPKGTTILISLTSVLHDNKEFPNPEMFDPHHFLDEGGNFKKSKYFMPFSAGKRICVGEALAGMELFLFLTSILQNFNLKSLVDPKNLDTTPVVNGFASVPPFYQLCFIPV

Take `N#Cc1ccc(COc2ccc(F)c(N3CCC4(CC3)C[C@@H]4c3nc4ccc(C(=O)O)cc4n3C[C@@H]3CCO3)n2)c(F)c1`: the Drug metabolism entry in [1] and in series [5] was “Metabolite_Detected” throughout. In addition, the inhibition at 3 µM against CYP2C8 is 60%; on CYP1A2, below 20%; at CYP3A4, below 20%; at CYP2C9, below 20%; on CYP2D6, below 20%. The hepatocyte CLint in series [2] came to 32 µL/min/1e6 cells. In series [3], this compound registered a logD of 2.3. Also, in series [4], the Papp was found to be 6 ×10⁻⁶ cm/s. The compound further registered an IC50 in the series on PDE3A1 of 409 nM. Besides, the Ki in [6] was above 40000 nM. This compound also gave an EC50 in [7] of 5.8 nM.

As to `O=C(O)c1ccc2nc([C@H]3CC34CCN(c3nc(OCc5ccc(Cl)cc5F)ncc3F)CC4)n(C[C@H]3CCO3)c2c1`, the hepatocyte CLint in series [2] came to 21 µL/min/1e6 cells. For the same compound, the Papp in series [4] is 5 ×10⁻⁶ cm/s.

For `N#Cc1ccc(COc2cccc(C3CCN(Cc4nc5ccc(C(=O)O)cc5n4C[C@@H]4CCO4)CC3)n2)c(F)c1` [DANUGLIPRON], in series [2], the hepatocyte CLint is 7 µL/min/1e6 cells. Besides, the Papp in series [4] amounted to 10 ×10⁻⁶ cm/s.

`O=C(O)c1ccc2nc([C@H]3CC34CCN(c3nccc(OCc5ccc(Cl)cc5F)n3)CC4)n(C[C@@H]3CCO3)c2c1`: in series [2], the hepatocyte CLint came to 30 µL/min/1e6 cells. The Papp in series [4] was 2 ×10⁻⁶ cm/s. Besides, the EC50 in series [7] was 32 nM.

With `Cn1c(CN2CCC(c3nc(OCc4ccc(Cl)cc4F)ncc3F)CC2)nc2ccccc21`, the Activity in [8] stood at 70%.

As for `N#Cc1ccc(COc2nc(N3CCC4(CC3)C[C@@H]4c3nc4ccc(C(=O)O)cc4n3C[C@@H]3CCO3)ccc2F)c(F)c1`, the hepatocyte CLint in series [2] was found to be 20 µL/min/1e6 cells. In addition, in [4], the Papp was 5 ×10⁻⁶ cm/s. In addition, in series [7], the EC50 amounted to 14 nM.

In the case of `O=C(O)c1ccc2nc([C@H]3CC34CCN(c3ncc(F)c(OCc5ccc(Cl)cc5F)n3)CC4)n(C[C@@H]3CCO3)c2c1`, the hepatocyte CLint in series [2] was found to be 27 µL/min/1e6 cells. In series [4], the Papp amounted to 3 ×10⁻⁶ cm/s. Moreover, in series [7], the EC50 turned out to be 19 nM.

With `N#Cc1ccc(COc2cccc(N3CCC4(CC3)C[C@@H]4c3nc4ccc(C(=O)O)cc4n3C[C@@H]3CCO3)n2)c(F)c1`, the hepatocyte CLint in series [2] turned out to be 23 µL/min/1e6 cells. The Papp in series [4] is 7 ×10⁻⁶ cm/s. Further, the EC50 in series [7] turned out to be 15 nM.

Regarding `Cn1c(CC2CCN(c3nc(OCc4ccc(Cl)cc4F)ncc3F)CC2)nc2ccccc21`, the Activity in series [8] came to 40%.

Turning to `N#Cc1ccc(COc2nc(N3CCC4(CC3)C[C@@H]4c3nc4ccc(C(=O)O)cc4n3C[C@@H]3CCO3)c(F)cc2F)c(F)c1`, the hepatocyte CLint in series [2] amounted to 37 µL/min/1e6 cells. Also, the Papp in series [4] worked out at 5 ×10⁻⁶ cm/s. Also, in [7], the EC50 is 4.1 nM.

With `Cn1c(CC2CCN(c3nc(OCc4ccc(Cl)cc4F)ncc3F)CC2)nc2ncccc21`, in [8], the Activity turned out to be 75%.

With `O=C(O)c1ccc2nc([C@H]3CC34CCN(c3nc(OCc5ccc(Cl)cc5F)ncc3F)CC4)n(C[C@@H]3CCO3)c2n1`, the hepatocyte CLint in series [2] came out at 14 µL/min/1e6 cells. Moreover, the Papp in series [4] was 7 ×10⁻⁶ cm/s. This compound also showed an EC50 in series [7] of 15 nM.

Broadly, the inhibition is the change of the read-out against control, counted positive when it falls. The term logD denotes lipophilicity at a set pH, counting ionised and neutral species. The low end stands for a more hydrophilic compound, the high end for a more lipophilic compound. As a reminder, the Papp is the rate of passage across a membrane or cell layer, normalised by area and donor concentration. A word on the IC50: it is the midpoint of a concentration-inhibition curve. As a reminder, the Ki is a measure of affinity in units of concentration, obtained from inhibition or displacement. As a reminder, the EC50 is the concentration giving half of the maximal effect.
